Results as given in patent US11547690B1, “Chemotherapeutic self-nanoemulsifying drug delivery systems and uses thereof” (KING ABDULAZIZ UNIVERSITY, priority 2022, dated 2023).
≈ marks a conversion by molar mass, not a printed value. Like-named read-outs stand apart in the source and are kept apart here.

Columns and labels:
[1] = cited from earlier work
[2] = Equilibrium solubility evaluation in lipids and cosolvents; type: physicochemical; details: for solubility at 72 h: 37 °C, thermodynamic from solid, read-out: solubility of PTX
Experimental: Solubility evaluation of PTX was carried out in various oils and cosolvents till attaining equilibrium by addition of excess quantity of drug to 1 gm of each of the excipient in culture vials and mixed well using vortex mixer (Remi Instruments, Mumbai, India). The sealed vials were kept on water bath shaker at 37±0.5° C. for 72 h for 150 strokes per minute. After specified time period, the samples were centrifuged at 3,000 rpm (402.5×g) for 15 minutes using a laboratory centrifuge (Remi Instruments, Mumbai, India). Drug was extracted in acetonitrile and supernatant fraction was filtered through 0.45 μm membrane filter, suitably diluted and analyzed by previously developed HPLC method.

solubility at 72 h ([2]; aqueous with cosolvent or surfactant or cyclodextrin, in Tween® 80, 37±0.5° C., 72 h): 78 mg/mL (≈ 91.3 mM) | solubility at 72 h ([2]; aqueous with cosolvent or surfactant or cyclodextrin, in surfactin): 106 mg/mL (≈ 124 mM) | solubility at 72 h ([2]; organic solvent or mixture, in Transcutol® HP, 37±0.5° C., 72 h): 235 mg/mL (≈ 275 mM) | solubility of PTX ([2]; in 1:1 ratio mixture of ethyl oleate:Plurol® Oleique, 37±0.5° C., 72 h): 198.5 mg/mL
Structure (SMILES): CC(=O)O[C@H]1C(=O)[C@@]2(C)[C@H]([C@H](OC(=O)c3ccccc3)[C@]3(O)C[C@H](OC(=O)[C@H](O)[C@@H](NC(=O)c4ccccc4)c4ccccc4)C(C)=C1C3(C)C)[C@]1(OC(C)=O)CO[C@@H]1C[C@@H]2O [PTX, Paclitaxel]
oral bioavailability [1]: 5%
